Measurements from patent US20140024700A1, “BLOOD-BORNE MIRNAS AS SURROGATE MARKERS OF DRUG EFFICACY FOR CARDIAC CONDITIONS” (miRagen Therapeutics, Inc., priority 2010, published 2014).
Where two headings read alike, the source gives them in different places.

System: plasma miRNAs
Conditions: 8 weeks
Method: To evaluate plasma biomarkers over time, surgically implanted catheters were used for non-invasive bi-weekly blood draws in the Dahl salt-sensitive rat model of congestive heart failure described in Example 1. Changes in plasma miRNA biomarkers with disease progression and therapeutic treatment with an LNA-modified antisense oligonucleotide targeting miR-208a (M−10101; SEQ ID NO: 12) were evaluated. The flowing experimental groups were tested:
The M-10591 oligonucleotide (SEQ ID NO:13) targets miR-67 from C. elegans, which is not expressed in mammalian tissue, and therefore was used as a control. Dahl salt-sensitive rats were implanted with catheters at week zero and baseline blood was taken. Following catheter implant surgery, high-salt diet was initiated. One week following the initiation of the 4.0% NaCl diet, rats were dosed subcutaneously (s.c.) with saline or antimiRs at 25 mg/kg once every 2 weeks. On alternating weeks (non-injection weeks) 1.5 mls of blood was drawn from the catheter for plasma isolation. Animals were sacrificed 8 weeks after the initial injection.
Plasma and tissue molecular endpoints were evaluated using Taqman RT-PCR assays. Specifically, RNA from plasma samples was isolated using Trizol LS (Invitrogen). Synthetic C. elegans miRNA sequences for lin-4 and miR-2 were added at a constant concentration to each sample to monitor purification efficiency and for normalization. Tissue RNA was isolated using standard Trizol RNA isolation. Standard ABI Taqman miRNA assay protocols were used to determine relative miRNA levels.
Changes in plasma miRNA levels between rats suffering from hypertension-induced heart failure (H S/saline group) and rats treated with an antimiR-208a oligonucleotide (HS/M-10101) were assessed at 8 weeks by both miRNA Taqman array card analysis (Tables 2 and 3) and real-time PCR analysis (Table 4).

[1] = Down Regulated, HS-Saline vs. HS-10101, Real Time PCR
[2] = Up-regulated, HS-Saline vs. HS-10101, Real Time PCR
[3] = decreased in response to treatment, HS-saline/HS-10101, array card
[4] = increased in response to treatment, HS-10101/HS-Saline, array card

Substance: M-10101: antimiR targeting bases 2 to 17 of mature miR-208a, LNA and DNA linked by phosphorothioate bonds; 5′-CTTTTTGCTCGTCTTA-3′ (SEQ ID NO: 12) (all phosphorothioate, sugars by position and methylation of C not given here; LNA/DNA mixmer; listed as Homo sapiens)
- Fold change of plasma hsa-miR-16 [1]: 3.45 fold
- Fold change of plasma hsa-miR-20a [1]: 1.92 fold
- Fold change of plasma hsa-miR-20b [1]: 2.10 fold
- Fold change of plasma hsa-miR-21 [1]: 1.48 fold
- Fold change of plasma hsa-miR-22 [1]: 1.50 fold
- Fold change of plasma hsa-miR-27a [1]: 2.10 fold
- Fold change of plasma hsa-miR-92a [1]: 2.32 fold
- Fold change of plasma hsa-miR-93 [1]: 2.87 fold
- Fold change of plasma hsa-miR-106b [1]: 2.57 fold
- Fold change of plasma hsa-miR-122 [1]: 1.36 fold
- Fold change of plasma hsa-miR-126 [1]: 1.30 fold
- Fold change of plasma hsa-miR-133a [1]: 1.29 fold
- Fold change of plasma hsa-miR-140 [1]: 2.13 fold
- Fold change of plasma hsa-miR-150 [1]: 2.07 fold
- Fold change of plasma hsa-miR-185 [1]: 2.35 fold
- Fold change of plasma hsa-miR-210 [1]: 2.31 fold
- Fold change of plasma hsa-miR-223 [1]: 3.02 fold
- Fold change of plasma hsa-miR-320 [1]: 3.16 fold
- Fold change of plasma hsa-miR-378 [1]: 1.74 fold
- Fold change of plasma hsa-miR-378* [1]: 1.38 fold
- Fold change of plasma hsa-miR-423-5p [1]: 2.52 fold
- Fold change of plasma hsa-miR-499 [1]: 1.26 fold
- Fold change of plasma hsa-miR-19b [2]: 2.68 fold
- Fold change of plasma hsa-miR-125a-5p [2]: 2.05 fold
- Fold change of plasma hsa-miR-143 [2]: 1.53 fold
- Fold change of plasma hsa-miR-145 [2]: 2.17 fold
- Fold change of plasma hsa-miR-195 [2]: 2.10 fold
- Fold change of plasma hsa-miR-199b-5p [2]: 2.39 fold
- Fold change of plasma hsa-miR-204 [2]: 2.18 fold
- Fold change of plasma hsa-miR-214 [2]: 1.49 fold
- Fold change of plasma hsa-let-7b [3]: 1.09 fold
- Fold change of plasma hsa-miR-16 [3]: 2.04 fold
- Fold change of plasma hsa-miR-17 [3]: 1.41 fold
- Fold change of plasma hsa-miR-18a [3]: 2.01 fold
- Fold change of plasma hsa-miR-20a [3]: 2.43 fold
- Fold change of plasma hsa-miR-20b [3]: 4.87 fold
- Fold change of plasma hsa-miR-24 [3]: 1.17 fold
- Fold change of plasma hsa-miR-25 [3]: 1.33 fold
- Fold change of plasma hsa-miR-26b [3]: 1.98 fold
- Fold change of plasma hsa-miR-27a [3]: 2.74 fold
- Fold change of plasma hsa-miR-27b [3]: 1.18 fold
- Fold change of plasma hsa-miR-29c [3]: 1.34 fold
- Fold change of plasma hsa-miR-30a [3]: 1.28 fold
- Fold change of plasma hsa-miR-30b [3]: 1.21 fold
- Fold change of plasma hsa-miR-92a [3]: 1.20 fold
- Fold change of plasma hsa-miR-93 [3]: 2.93 fold
- Fold change of plasma hsa-miR-101a [3]: 1.11 fold
- Fold change of plasma hsa-miR-103a [3]: 1.16 fold
- Fold change of plasma hsa-miR-106b [3]: 2.15 fold
- Fold change of plasma hsa-miR-122 [3]: 1.59 fold
- Fold change of plasma hsa-miR-125b-5p [3]: 1.51 fold
- Fold change of plasma hsa-miR-133a [3]: 2.21 fold
- Fold change of plasma hsa-miR-140-5p [3]: 3.23 fold
- Fold change of plasma hsa-miR-148a [3]: 2.49 fold
- Fold change of plasma hsa-miR-181c [3]: 1.37 fold
- Fold change of plasma hsa-miR-182 [3]: 1.39 fold
- Fold change of plasma hsa-miR-184 [3]: 1.42 fold
- Fold change of plasma hsa-miR-185 [3]: 7.02 fold
- Fold change of plasma hsa-miR-188-5p [3]: 1.76 fold
- Fold change of plasma hsa-miR-192 [3]: 1.92 fold
- Fold change of plasma hsa-miR-195 [3]: 1.73 fold
- Fold change of plasma hsa-miR-197 [3]: 1.52 fold
- Fold change of plasma hsa-miR-199a-5p [3]: 4.95 fold
- Fold change of plasma hsa-miR-203 [3]: 1.13 fold
- Fold change of plasma hsa-miR-218 [3]: 1.32 fold
- Fold change of plasma hsa-miR-222 [3]: 1.11 fold
- Fold change of plasma hsa-miR-223 [3]: 1.88 fold
- Fold change of plasma hsa-miR-301a [3]: 1.79 fold
- Fold change of plasma hsa-miR-320a [3]: 1.89 fold
- Fold change of plasma hsa-miR-324-5p [3]: 1.39 fold
- Fold change of plasma hsa-miR-335-5p [3]: 1.07 fold
- Fold change of plasma hsa-miR-340-5p [3]: 1.19 fold
- Fold change of plasma hsa-miR-365 [3]: 2.61 fold
- Fold change of plasma hsa-miR-423-5p [3]: 4.18 fold
- Fold change of plasma hsa-miR-451 [3]: 3.28 fold
- Fold change of plasma hsa-miR-484 [3]: 1.46 fold
- Fold change of plasma hsa-miR-486-5p [3]: 1.49 fold
- Fold change of plasma hsa-miR-542-3p [3]: 11.10 fold
- Fold change of plasma hsa-miR-744 [3]: 1.83 fold
- Fold change of plasma hsa-let-7c [4]: 1.54 fold
- Fold change of plasma hsa-let-7e [4]: 1.66 fold
- Fold change of plasma hsa-let-7g [4]: 3.02 fold
- Fold change of plasma hsa-let-7d [4]: 1.98 fold
- Fold change of plasma hsa-miR-19a [4]: 1.90 fold
- Fold change of plasma hsa-miR-19b [4]: 3.27 fold
- Fold change of plasma hsa-miR-26a [4]: 1.39 fold
- Fold change of plasma hsa-miR-28 [4]: 6.61 fold
- Fold change of plasma hsa-miR-29a [4]: 1.31 fold
- Fold change of plasma hsa-miR-29b [4]: 2.67 fold
- Fold change of plasma hsa-miR-30c [4]: 1.37 fold
- Fold change of plasma hsa-miR-30e [4]: 1.06 fold
- Fold change of plasma hsa-miR-31 [4]: 1.45 fold
- Fold change of plasma hsa-miR-99b [4]: 2.63 fold
- Fold change of plasma hsa-miR-107 [4]: 5.54 fold
- Fold change of plasma hsa-miR-125a-3p [4]: 12.16 fold
- Fold change of plasma hsa-miR-125a-5p [4]: 5.34 fold
- Fold change of plasma hsa-miR-126 [4]: 1.27 fold
- Fold change of plasma hsa-miR-126-5p (miR-126*) [4]: 2.01 fold
- Fold change of plasma hsa-miR-128a [4]: 1.75 fold
- Fold change of plasma hsa-miR-130a [4]: 2.30 fold
- Fold change of plasma hsa-miR-130b [4]: 1.26 fold
- Fold change of plasma hsa-miR-138 [4]: 1.08 fold
- Fold change of plasma hsa-miR-139-5p [4]: 1.14 fold
- Fold change of plasma hsa-miR-142-3p [4]: 25.04 fold
- Fold change of plasma hsa-miR-142-5p [4]: 1.98 fold
- Fold change of plasma hsa-miR-143 [4]: 8.47 fold
- Fold change of plasma hsa-miR-145 [4]: 2.07 fold
- Fold change of plasma hsa-miR-146a [4]: 1.17 fold
- Fold change of plasma hsa-miR-152 [4]: 2.05 fold
- Fold change of plasma hsa-miR-155 [4]: 1.73 fold
- Fold change of plasma hsa-miR-181a [4]: 3.00 fold
- Fold change of plasma hsa-miR-186 [4]: 1.83 fold
- Fold change of plasma hsa-miR-187 [4]: 1.60 fold
- Fold change of plasma hsa-miR-191 [4]: 1.23 fold
- Fold change of plasma hsa-miR-196b [4]: 11.73 fold
- Fold change of plasma hsa-miR-199a-3p [4]: 3.14 fold
- Fold change of plasma hsa-miR-204 [4]: 4.61 fold
- Fold change of plasma hsa-miR-214 [4]: 1.57 fold
- Fold change of plasma hsa-miR-296-5p [4]: 18.29 fold
- Fold change of plasma hsa-miR-302a [4]: 2.10 fold
- Fold change of plasma hsa-miR-324-3p [4]: 1.07 fold
- Fold change of plasma hsa-miR-331-3p [4]: 1.53 fold
- Fold change of plasma hsa-miR-339-5p [4]: 2.18 fold
- Fold change of plasma hsa-miR-340-3p [4]: 1.86 fold
- Fold change of plasma hsa-miR-342-3p [4]: 1.15 fold
- Fold change of plasma hsa-miR-375 [4]: 1.32 fold
- Fold change of plasma hsa-miR-449a [4]: 2.99 fold
- Fold change of plasma hsa-miR-487b [4]: 2.67 fold
- Fold change of plasma hsa-miR-532-3p [4]: 1.72 fold
- Fold change of plasma hsa-miR-574-3p [4]: 2.20 fold
- Fold change of plasma hsa-miR-30d [4]: 1.29 fold
